# Structures can show the parent of a compound that is named as a salt.
# System: KMS.12.BM cells
# Assay: KMS.12.BM Cell Viability Assay (Example B1)
# Assay type: cell-based, human
# Details: Homo sapiens, 72 h, 3 days, Cell Titer-GLO, read-out: KMS cellular IC50
# Protocol: KMS.12.BM cell line (human myeloma) was purchased from JCRB (Osaka, Japan) and maintained in RPMI with 10% FBS culture medium. To measure the cytotoxic activity of the compounds through ATP quantitation, the KMS.12.BM cells are plated in the RPMI culture medium at 5000 cells/well/per 100 μL into a 96-well polystyrene clear black tissue culture plate (Greiner-bio-one through VWR, NJ), in the presence or absence of a concentration range of test compounds. After 3 days, […] Cell Titer-GLO Luminescent (Promega, Madison, Wis.) cell culture agent is added to each well for 10 min. at room temperature to stabilize the luminescent signal. This determines the number of viable cells in culture based on quantitation of the ATP present, which signals the presence of metabolically active cells.
row,SMILES,IC50
1,"Cc1noc(C)c1-c1ccc2[nH]c(=O)n3c2c1OCC3c1ccccc1OCC(=O)N(C)C (centres unmarked) [Example 51, 2-{2-[7-(3,5-Dimethylisoxazol-4-yl)-2-oxo-1,2,4,5-tetrahydroimidazo[1,5,4-de][1,4]benzoxazin-4-yl]phenoxy}-N,N-dimethylacetamide]",< 1000 nM
2,"Cc1noc(C)c1-c1cc(-c2cccnc2)c2[nH]c(=O)n3c2c1OCC3c1ccccc1 (centres unmarked) [Example 52, 7-(3,5-Dimethylisoxazol-4-yl)-4-phenyl-9-pyridin-3-yl-4,5-dihydroimidazo[1,5,4-de][1,4]benzoxazin-2(1H)-one]",< 1000 nM
3,"Cc1noc(C)c1-c1ccc2nc(N3CCOCC3)n3c2c1OCC3c1ccccc1 (centres unmarked) [Example 53, 7-(3,5-Dimethylisoxazol-4-yl)-2-morpholin-4-yl-4-phenyl-4,5-dihydroimidazo[1,5,4-de][1,4]benzoxazine]",< 1000 nM
4,"Cc1noc(C)c1-c1ccc2nc(N3CCCC3)n3c2c1OCC3c1ccccc1 (centres unmarked) [Example 54, 7-(3,5-Dimethylisoxazol-4-yl)-4-phenyl-2-pyrrolidin-1-yl-4,5-dihydroimidazo[1,5,4-de][1,4]benzoxazine]",< 1000 nM
5,"Cc1noc(C)c1-c1ccc2nc(N3CCC(O)C3)n3c2c1OCC3c1ccccc1 (centres unmarked) [Example 55, 1-[7-(3,5-Dimethylisoxazol-4-yl)-4-phenyl-4,5-dihydroimidazo[1,5,4-de][1,4]benzoxazin-2-yl]pyrrolidin-3-ol]",< 1000 nM
6,"Cc1noc(C)c1-c1ccc2nc(N3CCCCC3)n3c2c1OCC3c1ccccc1 (centres unmarked) [Example 56, 7-(3,5-Dimethylisoxazol-4-yl)-4-phenyl-2-piperidin-1-yl-4,5-dihydroimidazo[1,5,4-de][1,4]benzoxazine]",< 1000 nM
7,"Cc1noc(C)c1-c1ccc2nc(N3CCC(O)CC3)n3c2c1OCC3c1ccccc1 (centres unmarked) [Example 57, 1-[7-(3,5-Dimethylisoxazol-4-yl)-4-phenyl-4,5-dihydroimidazo[1,5,4-de][1,4]benzoxazin-2-yl]piperidin-4-ol]",< 1000 nM
8,"Cc1noc(C)c1-c1ccc2nc(N3CCCC(O)C3)n3c2c1OCC3c1ccccc1 (centres unmarked) [Example 58, 1-[7-(3,5-Dimethylisoxazol-4-yl)-4-phenyl-4,5-dihydroimidazo[1,5,4-de][1,4]benzoxazin-2-yl]piperidin-3-ol]",< 1000 nM
9,Cc1noc(C)c1-c1ccc2nc(N3CC(O)C3)n3c2c1OCC3c1ccccc1 (centres unmarked) [Example 59],< 1000 nM
10,Cc1noc(C)c1-c1ccc2nc(N3CCN(C(=O)OC(C)(C)C)CC3)n3c2c1OCC3c1ccccc1 (centres unmarked) [Example 60],< 1000 nM
11,"C=Cc1nc2ccc(-c3c(C)noc3C)c3c2n1[C@@H](c1ccccn1)CO3 [Example 88, (4S)-7-(3,5-Dimethylisoxazol-4-yl)-4-pyridin-2-yl-2-vinyl-4,5-dihydroimidazo[1,5,4-de][1,4]benzoxazine]",< 1000 nM
12,"Cc1noc(C)c1-c1ccc2nc([C@@H](O)CO)n3c2c1OC[C@@H]3c1ccccn1 [Example 89, (1R)-1-[(4S)-7-(3,5-Dimethylisoxazol-4-yl)-4-pyridin-2-yl-4,5-dihydroimidazo[1,5,4-de][1,4]benzoxazin-2-yl]ethane-1,2-diol]",< 1000 nM
13,"Cc1noc(C)c1-c1ccc2nc(C(C)O)n3c2c1OC[C@@H]3c1ccccn1 (stereo partly drawn) [Example 90, 1-[(4S)-7-(3,5-Dimethylisoxazol-4-yl)-4-pyridin-2-yl-4,5-dihydroimidazo[1,5,4-de][1,4]benzoxazin-2-yl]ethanol]",< 1000 nM
14,"Cc1noc(C)c1-c1ccc2nc(C(=O)N(C)C)n3c2c1OC[C@@H]3c1ccccn1 [Example 91, (4S)-7-(3,5-Dimethylisoxazol-4-yl)-N,N-dimethyl-4-pyridin-2-yl-4,5-dihydroimidazo[1,5,4-de][1,4]benzoxazine-2-carboxamide]",< 1000 nM
15,"Cc1noc(C)c1-c1ccc2ncn3c2c1OC[C@@H]3c1ccccn1 [Example 92, (4S)-7-(3,5-Dimethylisoxazol-4-yl)-4-pyridin-2-yl-4,5-dihydroimidazo[1,5,4-de][1,4]benzoxazine]",< 1000 nM
16,"Cc1noc(C)c1-c1ccc2nc(C(=O)OC(C)(C)C)n3c2c1OC[C@@H]3c1ccccn1 [Example 93, tert-Butyl (4S)-7-(3,5-dimethylisoxazol-4-yl)-4-pyridin-2-yl-4,5-dihydroimidazo[1,5,4-de][1,4]benzoxazine-2-carboxylate]",< 1000 nM

row,SMILES,IC50
1,"Cc1noc(C)c1-c1ccc2nc(C3=CCN(C(=O)OC(C)(C)C)CC3)n3c2c1OC[C@@H]3c1ccccn1 [Example 97, tert-Butyl 4-[(4S)-7-(3,5-dimethylisoxazol-4-yl)-4-pyridin-2-yl-4,5-dihydroimidazo[1,5,4-de][1,4]benzoxazin-2-yl]-3,6-dihydropyridine-1 (2H)-carboxylate]",< 1000 nM
2,"Cc1noc(C)c1-c1ccc2nc(C3CCN(C(=O)OC(C)(C)C)CC3)n3c2c1OC[C@@H]3c1ccccn1 [Example 100, tert-Butyl 4-[(4S)-7-(3,5-dimethylisoxazol-4-yl)-4-pyridin-2-yl-4,5-dihydroimidazo[1,5,4-de][1,4]benzoxazin-2-yl]piperidine-1-carboxylate]",< 1000 nM
3,Cc1noc(C)c1-c1ccc2nc(C3CCNCC3)n3c2c1OC[C@@H]3c1ccccn1 [Example 103],< 1000 nM
4,"Cc1noc(C)c1-c1ccc2nc(C3=CCNCC3)n3c2c1OC[C@@H]3c1ccccn1 [Example 104, (4S)-7-(3,5-dimethylisoxazol-4-yl)-4-pyridin-2-yl-2-(1,2,3,6-tetrahydropyridin-4-yl)-4,5-dihydroimidazo[1,5,4-de][1,4]benzoxazine]",< 1000 nM
5,"Cc1noc(C)c1-c1ccc2nc(C3CCN(C(=O)C4CC4)CC3)n3c2c1OC[C@@H]3c1ccccn1 [Example 111, (4S)-2-[1-(cyclopropylcarbonyl)piperidin-4-yl]-7-(3,5-dimethylisoxazol-4-yl)-4-pyridin-2-yl-4,5-dihydroimidazo[1,5,4-de][1,4]benzoxazine]",< 1000 nM
6,"Cc1noc(C)c1-c1ccc2nc(C3CCN(S(C)(=O)=O)CC3)n3c2c1OC[C@@H]3c1ccccn1 [Example 112, (4S)-7-(3,5-dimethylisoxazol-4-yl)-2-[1-(methylsulfonyl)piperidin-4-yl]-4-pyridin-2-yl-4,5-dihydroimidazo[1,5,4-de][1,4]benzoxazine]",< 1000 nM
7,"Cc1noc(C)c1-c1ccc2[nH]c(=O)n3c2c1CCC3c1ccccc1 (centres unmarked) [Example 120, 7-(3,5-Dimethylisoxazol-4-yl)-4-phenyl-5,6-dihydro-4H-imidazo[4,5,1-ij]quinolin-2(1H)-one]",< 1000 nM
8,"COn1c(=O)n2c3c(c(-c4c(C)noc4C)ccc31)CCC2c1ccccn1 (centres unmarked) [Example 122, 7-(3,5-Dimethylisoxazol-4-yl)-1-methoxy-4-pyridin-2-yl-5,6-dihydro-4H-imidazo[4,5,1-ij]quinolin-2(1H)-one trifluoroacetate]",< 1000 nM
9,"Cc1noc(C)c1-c1ccc2[nH]c(=O)n3c2c1CCC3c1ccccn1 (centres unmarked) [Example 123, 7-(3,5-Dimethylisoxazol-4-yl)-4-pyridin-2-yl-5,6-dihydro-4H-imidazo[4,5,1-ij]quinolin-2(1H)-one trifluoroacetate]",< 1000 nM
10,"CC(=O)NCc1ncccc1C1COc2c(-c3c(C)noc3C)ccc3[nH]c(=O)n1c23 (centres unmarked) [Example 131, N-({3-[7-(3,5-Dimethylisoxazol-4-yl)-2-oxo-1,2,4,5-tetrahydroimidazo[1,5,4-de][1,4]benzoxazin-4-yl]pyridin-2-yl}methyl)acetamide]",< 1000 nM
11,"Cc1noc(C)c1-c1cc(CNC(=O)CN(C)C)c2[nH]c(=O)n3c2c1OC[C@@H]3c1ccccn1 [Example 143, 2-(Dimethylamino)-N-{[(4S)-7-(3,5-dimethylisoxazol-4-yl)-2-oxo-4-pyridin-2-yl-1,2,4,5-tetrahydroimidazo[1,5,4-de][1,4]benzoxazin-9-yl]methyl}acetamide]",< 1000 nM
12,"Cc1noc(C)c1-c1ccc2nc(N3CC[C@@H](C(=O)NC(C)C)C3)n3c2c1OC[C@@H]3c1ccccn1 [Example 145, (3R)-1-[(4S)-7-(3,5-Dimethylisoxazol-4-yl)-4-pyridin-2-yl-4,5-dihydroimidazo[1,5,4-de][1,4]benzoxazin-2-yl]-N-isopropylpyrrolidine-3-carboxamide]",< 1000 nM
13,"Cc1noc(C)c1-c1ccc2nc(N3CCCN(S(N)(=O)=O)CC3)n3c2c1OC[C@@H]3c1ccccn1 [Example 147, 4-[(4S)-7-(3,5-Dimethylisoxazol-4-yl)-4-pyridin-2-yl-4,5-dihydroimidazo[1,5,4-de][1,4]benzoxazin-2-yl]-1,4-diazepane-1-sulfonamide]",< 1000 nM
14,"CC(=O)N1CCCN(c2nc3ccc(-c4c(C)noc4C)c4c3n2[C@@H](c2ccccn2)CO4)CC1 [Example 148, (4S)-2-(4-Acetyl-1,4-diazepan-1-yl)-7-(3,5-dimethylisoxazol-4-yl)-4-pyridin-2-yl-4,5-dihydroimidazo[1,5,4-de][1,4]benzoxazine]",< 1000 nM
15,"Cc1noc(C)c1-c1ccc2nc(N3CCCN(S(C)(=O)=O)CC3)n3c2c1OC[C@@H]3c1ccccn1 [Example 149, (4S)-7-(3,5-Dimethylisoxazol-4-yl)-2-[4-(methylsulfonyl)-1,4-diazepan-1-yl]-4-pyridin-2-yl-4,5-dihydroimidazo[1,5,4-de][1,4]benzoxazine]",< 1000 nM

# Same assay, conditions: Homo sapiens, KMS-12-BM, 72 h, 3 days, Cell Titer-GLO, read-out: KMS cellular IC50
row,SMILES,IC50
1,"Cc1noc(C)c1-c1ccc2[nH]c(=O)n3c2c1OCC3c1cccnc1C(=O)N(C)C (centres unmarked) [Example 129, 3-[7-(3,5-Dimethylisoxazol-4-yl)-2-oxo-1,2,4,5-tetrahydroimidazo[1,5,4-de][1,4]benzoxazin-4-yl]-N,N-dimethylpyridine-2-carboxamide]",< 1000 nM

# — patent US10464947B2 (Incyte Corporation, priority 2013, dated 2019)
